The values that follow come from patent US10456405B2, “Nitric oxide-releasing prodrug molecule of substituted quinazolines” (ZHEJIANG HUAHAI PHARMACEUTICAL CO., LTD, priority 2015, dated 2019).

Molecules are shown by their SMILES. Where two headings read alike, the source gives them in different places.

One data set concerns db/db mice. Briefly: Serum NO and heart eNOS in db/db mice after oral gavage. It counts as in vivo. The settings on record: blank = 100, oral gavage 150 mg/kg (isosorbide mononitrate 5 mg/kg), 1 h after administration (H101: 2 h). An excerpt: Experimental method: 25 eight-week-old db/db mice (strain: BKS.Cg−+Leprdb/+leprdb/JclSlac; grade: SPF; gender: male; source: Shanghai SLAC Laboratory Animal Co., Ltd.) were selected. 3 of them were selected as the blank administration control. 2 mice were used as the positive drug control (isosorbide mononitrate). The remaining 20 mice were randomly divided into 5 groups, 4 mice per group, which are H101 administration group, H111 administration group, H116 administration group, H119 administration group, and H130 administration group. The tested compounds of the positive drug control group and each administration group were dissolved in DMSO. Then PEG400 was added. The mixture was shaken and mixed thoroughly. At last, 10% of HP-β-CD was added. The mixture was shaken and mixed thoroughly. The ratio of each solvent was DMSO: PEG400:10% of HP-β-CD=5:67.5:27.5. The administration group was administered by oral gavage at the dose of 150 mg/kg. The positive drug control group was administered at the dose of 5 mg/kg. The mice in the H101 administration group were sacrificed at 2 h after the administration. The mice in the remaining administration groups were sacrificed at 1 h after the administration. The blood was collected respectively into 1.5 mL centrifuge tube, standing at room temperature for more than 30 min, and then centrifuged (3000 rpm, 10 min). The supernatant serum was aspirated, and stored at −80° C. for testing. After the blood was collected, the heart was cut with the thoracic aorta. Three parts of the heart were weighed and placed into cryovials, rapidly frozen in liquid nitrogen, and cryopreserved at −80° C. for testing. The aorta and aortic arch were weighed, rapidly frozen in liquid nitrogen, and cryopreserved at −80° C. for testing. The content of NO in the serum of the […] mice was determined by a total NO test kit (Beyotime). The content of NOS in the heart of the mice was determined with an NOS test kit (Beyotime). The content of eNOS was calculated by the difference between the measured values before and after adding the eNOS inhibitor L-NAME (Beyotime).

The next data set has as its system apoE−/− mice. Nature of the data set: apoE−/− mouse atherosclerosis model, high-fat diet 10 weeks. Type of data set: in vivo. An excerpt: Experimental method: 36 eight-week-old male apoE-/- mice were selected and randomly divided into a blank administration group, an […] administration group, an […] administration group, an […] administration group, an […] administration group, and an […] administration group, 6 mice per group. The mice in each group were fed with high-fat diet for 10 weeks. At the beginning of the high-fat feeding, the mice in each group were administrated. Each tested compound was intragastric administered at the dose of 150 mg/kg twice a day. The blank administration group was given corresponding dose of saline. […] After the blood was taken, the serum, heart, and aorta were isolated. The levels of total cholesterol (TC), high density lipoprotein cholesterol (HDL-C), and low density lipoprotein cholesterol (LDL-C) in the serum of the mice in each group were measured by automatic biochemical analyzer. The ApoA1 expression level was detected with an ApoA1 kit. The content of NO in the serum of the mice was determined with a total NO test kit (Beyotime). The NOS activities of the heart, aorta, and serum were determined with an NOS test kit (Beyotime). The content of eNOS was calculated by the difference between the measured values determined before and after adding eNOS inhibitor L-NAME (Beyotime).

A short description of data set [1]: Release of HNO (headspace gas chromatography of nitrous oxide). How it is done: Experiment 2. Experimental study on the tested compounds for releasing HNO HNO rapidly dimerizes and dehydrates to produce nitrous oxide in aqueous solution. In the experiment of detecting HNO, gas chromatographic headspace analysis is generally used to determine the amount of the released nitrous oxide, thereby indirectly detect the level of releasing HNO of the compound.
Experimental procedure: Each of the tested compounds was prepared to 20 mg/mL of mother liquor with DMF. Prior to the start of the experiment, 50 μL of drug mother liquor was placed into a 20 mL headspace sample vial. The tested compound was diluted by adding 5 mL of PBS buffer with pH 7.4. The temperature of the resulting sample was kept at 37° C. under argon gas for 90 min. Then the top gas was extracted for gas chromatographic analysis of nitrous oxide by using Angeli's Salt as a positive compound in the experiment.

Data set [2] can be described thus: Release of nitric oxide in vitro (Griess reagent, nitrite). The settings on record: 10^−4 mol/L tested substance, phosphate buffer pH 7.4, cysteine 5 mmol/L, 37° C., 1 h; as nitrite. Here is the method:
Experiment 1. Experimental Study on the Tested Compounds for Releasing Nitric Oxide in vitro
Experimental Procedure: • (1) Preparation of Griess Reagent: 4 g of aminobenzenesulfonamide, 0.2 g of N-naphthyl ethylene diamine hydrochloride, and 10 mL of 85% phosphoric acid solution were taken to form a solution, which is diluted to 100 mL with distilled water. • (2) Plotting of the standard curve: a serie of standard solution of 0.01, 0.03, 0.05, 0.07, 0.09, 0.2, 0.4 μg/mL of nitrite nitrogen was prepared, 10 mL of each was taken to sufficiently mix with 2.5 mL of Griess reagent, standing at room temperature for 10 min, and its absorbance value at the wavelength of 540 nm was measured. The standard curve was plotted based on the resulting data. • (3) Measuring the amount of the released NO of the tested drug: all of the tested substances were dissolved in dimethylsulfoxide (1 mL) firstly. Then phosphate buffer (pH 7.4) was slowly added dropwise, and shaken. The drug solution was diluted to 50 mL, allowing the buffer solution to contain excess cysteine (5 mmol/L), and the final concentration of the tested substances being 10^−4 mol/L; the solution was incubated at 37° C. 2 mL of the reaction solution was taken to mix with 500 μl of Griess reagent at 1 h respectively, standing at room temperature for 10 min. The absorbance value of the mixture at 540 nm was measured. Isosorbide mononitrate was used as a positive control, and H130 was used as a negative control. The amount of the released NO was represented by the amount of its oxidation product, nitrite (NO2^−).
(In general: Griess reagent forms a coloured azo dye with nitrite.)

Data set [3] can be described thus: Plasma stability in vitro, mouse plasma. The settings on record: CD-1 mice plasma, 2 μM, 37° C., in % (unit assumed).
Experimental: (§1) Experimental method: The tested compounds (2 μM) were added into mouse or human plasma, and incubated at 37° C. Samples were taken at 0, 10, 30, 60 and 120 min respectively. The reaction was stopped by adding a stop agent. The mixture was sufficient shaken, and centrifuged at 4000 rpm for 10 min at 4° C. The supernatant was taken. The concentrations of the tested compounds and their metabolite (H130) in the supernatant were measured by LC-MS/MS.
Data set [4] in a line: Plasma stability in vitro, human plasma. Conditions: for Content of Tested Substance (n = 2): human plasma, 2 μM, 37° C., in % (unit assumed).
Experimental: as §1
A further data set has as its system ApoA-I mRNA. Nature of the data set: Regulation of ApoA-I mRNA in HepG2 cells (real-time PCR). It counts as cell-based. Set-up: key: Active: When 100 μM of the tested compound allowed ApoA-I mRNA in HepG2 cells to increase more than 15%, then the test compound was known as an ApoA active compound. Conditions: 100 μM, 48 h, relative to DMSO control. Here is the method: Experiment 5. Regulation of the Tested Compounds on ApoA-I mRNA HepG2 cells were cultured for 24 h in a 24-well plate with 400 μl of MEM medium containing 0.5% (v/v) of fetal bovine serum. Then each of the tested compounds (100 μM) and the positive control RVX-208 (100 μM) were added. The cells were cultured for another 48 h. The medium was aspirated out. After washing with 200 μl of PBS, 85 μl of cell lysis solution was added into the cells in each well. The cells were incubated at room temperature for 5 to 10 min to be completely dissolved and detached. The mRNA was extracted from the cells with a kit. The extracted mRNA were used for a real-time fluorescence quantitative PCR detection with RNA Fluorescence (RiboGreen) Quantitation Assay Kit and ApoA-I mRNA Primer-Probe Mixture from the company of Applied Biosystems.
After obtaining the Ct values, the induction fold of each test compound relative to DMSO control was calculated. The induction fold was used to reflect the ability of regulating ApoA-I mRNA for the tested compounds. When 100 μM of the tested compound allowed ApoA-I mRNA in HepG2 cells to increase more than 15%, then the test compound was known as an ApoA active compound.

The conditions of data set [5]: rat, in vivo.
Experimental: Experimental method: Intravenous injection solutions (the administration concentrations of the tested compounds were 1 mg/kg) and oral gastric perfusates (the administration concentrations of the test compounds were 5 mg/kg) of the test compounds were prepared, and intravenously and orally administered to three SD rats, respectively. The concentrations of the whole blood for H130 at 0.083 h, 0.25 h, 0.5 h, 1 h, 2 h, 4 h, 8 h, and 24 h after administration were determined by LC-MS/MS, respectively. The pharmacokinetic parameters were compared by a drug-time curve. Sample pretreatment: 150 μL of the whole blood to be tested was aspirated accurately. 600 μL of internal standard solution (diluted to 0.5 μg/mL with methanol) was added, sufficiently mixed by a vortex mixer, and centrifuged at 13000 r/min for 20 min at 4° C. 3 μL of the supernatant was taken into a sample vial.
Chromatographic conditions: C18 reversed-phase chromatographic column; gradient elution with mobile phase A: water/acetonitrile (v:v=95:5) with 0.025% of formic acid and 1 mM of ammonium acetate added thereto, and mobile phase B: acetonitrile/water (v:v=95:5) with 0.025% of formic acid and 1 mM of ammonium acetate added thereto.
The mark [6] stands for this setting: blank administration group = 100, 150 mg/kg twice a day, 10 weeks.
Setting [7] is: serum, high-fat diet 10 weeks, intragastric 150 mg/kg twice a day.

Regarding `COc1cc(OC)c2c(=O)[nH]c(-c3cc(C)c(OCCO)c(C)c3)nc2c1` [Compound H130, 2-(4-(2-hydroxyethoxy)-3,5-dimethylphenyl)-5,7-dimethoxyquinazoline-4(3H)-one, reference compound], in the data set with db/db mice, the “Heart eNOS” value is given as 123% and the “Serum NO” value stood at 111%. In addition, in the data set with apoE−/− mice (setting [6]), the “Aorta eNOS” value is 105%, the ApoA1 came out at 130%, the “Heart eNOS” value is 115% and the “Serum NO” value came out at 108%. Further, the “Serum eNOS” value in the data set with apoE−/− mice (setting [6]) is given as 107%. In the data set with apoE−/− mice (setting [7]), this compound yielded an HDL-C of 86 ± 13 mg/dL, an LDL-C of 273 ± 33 mg/dL and a TC of 1005 ± 44 mg/dL. In addition, in data set [1] (PBS pH 7.4, 37° C., argon, 90 min), the “Molar Quantities of N2O/Sample” value is −0.15%. In addition, in data set [1] (within 1.5 h), the HNO release detected result was “no HNO release can be detected”. Also, the “Amount of Released No” value in data set [2] was -1.03 µM.

Regarding `COc1cc(OC)c2c(=O)[nH]c(-c3cc(C)c(OCCOC(=O)CCC(CO[N+](=O)[O-])O[N+](=O)[O-])c(C)c3)nc2c1` (centres unmarked) [Compound H108, 2-[4-(5,7-dimethoxy-4-oxo-3,4-dihydro-quinazolin-2-yl)-2,6-dimethyl-phenoxy]-ethyl 4,5-dinitroxy-pentanoate], the “Content of Tested Substance (n = 2)” value in data set [3] (0 min) came out at 100.0; in data set [3] (10 min), 0.5; in data set [3] (30 min) it was 0.3; in data set [3] (60 min) it was 1.7; in data set [3] (120 min), 0.3; in data set [4] (0 min), 100.0. In addition, the “Content of Tested Substance (n = 2)” value was determined as 101.5 in data set [4] (10 min), 95.5 in data set [4] (30 min), 93.8 in data set [4] (60 min) and 85.3 in data set [4] (120 min). Also, the “Amount of Released No” value in data set [2] was determined as 0.33 µM. Further, the “stability in human plasma” value in data set [4] (within 2 h) is listed as “good stability”. The “Upregulation of Apoa-I Mrna Level” value with ApoA-I mRNA is reported as “Active”.

Take `COc1cc(OC)c2c(=O)[nH]c(-c3cc(C)c(OCCOC(=O)CCC(=O)OCC(CO[N+](=O)[O-])(CO[N+](=O)[O-])CO[N+](=O)[O-])c(C)c3)nc2c1` [Compound H106, 2-[4-(5,7-dimethoxy-4-oxo-3,4-dihydro-quinazolin-2-yl)-2,6-dimethyl-phenoxy]-ethyl 3-(nitroxy)-2,2-di((nitroxy)methyl) propyl succinate]: in data set [2], the “Amount of Released No” value came out at 2.56 µM. Moreover, in the data set with ApoA-I mRNA, the “Upregulation of Apoa-I Mrna Level” value is on record as “Active”.

`COc1cc(OC)c2c(=O)[nH]c(-c3cc(C)c(OCCOC(=O)CC(N)C(=O)OCC(CO[N+](=O)[O-])O[N+](=O)[O-])c(C)c3)nc2c1.Cl` (centres unmarked) [Compound H118, 1-(2,3-dinitroxy-propyl) 4-{2-[4-(5,7-dimethoxy-4-oxo-3,4-dihydro-quinazolin-2-yl)-2,6-dimethyl-phenoxy]-ethyl}2-amino-succinate hydrochloride]: the “Amount of Released No” value in data set [2] stood at 1.74 µM. Also, in data set [5], the “release of prototype compound H130 after administration” value was “can be rapidly released”. Besides, the “AUCRatio (Dosage Calibration)” value in data set [5] (iv, 1 mg/kg) was 19.2%; in data set [5] (po, 5 mg/kg), 14.1%. Moreover, the “Upregulation of Apoa-I Mrna Level” value with ApoA-I mRNA is reported as “Active”.

For the compound `COc1cc(OC)c2c(=O)[nH]c(-c3cc(C)c(OCCOC(=O)CNC(=O)CCCO[N+](=O)[O-])c(C)c3)nc2c1` [Compound H109, 2-[4-(5,7-dimethoxy-4-oxo-3,4-dihydro-quinazolin-2-yl)-2,6-dimethyl-phenoxy]-ethyl (4-nitroxy-butyrylamido)-acetate], the “Amount of Released No” value in data set [2] is 1.49 µM. The “Upregulation of Apoa-I Mrna Level” value in the data set with ApoA-I mRNA is recorded as “Active”.
